Test results reported in US20080038277A1, “Dna Pkinase Inhibitors For Treating Cancer And Diabetes” (priority 2004, published 2008).

Tests used:
[1] = test system: PKB; settings: cisplatin treatment (ref. 32); cited from earlier work
[2] = test system: DNA-PK; settings: through proteolytic degradation of DNA-PK (ref. 31); cited from earlier work
[3] = target: T1, S473K1 (Homo sapiens, UniProt P78527); assay: S473K1 (Mono Q fraction 27) kinase assay with FSY peptide plus DNA, or GST-PKBα419-480 and pS473 Western blot; type: biochemical; settings: LY294002 5 μM, wortmannin 2 μM, staurosporine 5 μM; FSY peptide in presence of DNA and GST-PKBα419-480 (FIGS. 1E and F)
T1 construct: purification and identification of this kinase from HEK293 cells; endogenous in cells; host or cells: HEK293 crude membrane fraction, purified over Q-Sepharose, Mono S and Mono Q
T1 sequence (P78527 whole entry, one chain of several): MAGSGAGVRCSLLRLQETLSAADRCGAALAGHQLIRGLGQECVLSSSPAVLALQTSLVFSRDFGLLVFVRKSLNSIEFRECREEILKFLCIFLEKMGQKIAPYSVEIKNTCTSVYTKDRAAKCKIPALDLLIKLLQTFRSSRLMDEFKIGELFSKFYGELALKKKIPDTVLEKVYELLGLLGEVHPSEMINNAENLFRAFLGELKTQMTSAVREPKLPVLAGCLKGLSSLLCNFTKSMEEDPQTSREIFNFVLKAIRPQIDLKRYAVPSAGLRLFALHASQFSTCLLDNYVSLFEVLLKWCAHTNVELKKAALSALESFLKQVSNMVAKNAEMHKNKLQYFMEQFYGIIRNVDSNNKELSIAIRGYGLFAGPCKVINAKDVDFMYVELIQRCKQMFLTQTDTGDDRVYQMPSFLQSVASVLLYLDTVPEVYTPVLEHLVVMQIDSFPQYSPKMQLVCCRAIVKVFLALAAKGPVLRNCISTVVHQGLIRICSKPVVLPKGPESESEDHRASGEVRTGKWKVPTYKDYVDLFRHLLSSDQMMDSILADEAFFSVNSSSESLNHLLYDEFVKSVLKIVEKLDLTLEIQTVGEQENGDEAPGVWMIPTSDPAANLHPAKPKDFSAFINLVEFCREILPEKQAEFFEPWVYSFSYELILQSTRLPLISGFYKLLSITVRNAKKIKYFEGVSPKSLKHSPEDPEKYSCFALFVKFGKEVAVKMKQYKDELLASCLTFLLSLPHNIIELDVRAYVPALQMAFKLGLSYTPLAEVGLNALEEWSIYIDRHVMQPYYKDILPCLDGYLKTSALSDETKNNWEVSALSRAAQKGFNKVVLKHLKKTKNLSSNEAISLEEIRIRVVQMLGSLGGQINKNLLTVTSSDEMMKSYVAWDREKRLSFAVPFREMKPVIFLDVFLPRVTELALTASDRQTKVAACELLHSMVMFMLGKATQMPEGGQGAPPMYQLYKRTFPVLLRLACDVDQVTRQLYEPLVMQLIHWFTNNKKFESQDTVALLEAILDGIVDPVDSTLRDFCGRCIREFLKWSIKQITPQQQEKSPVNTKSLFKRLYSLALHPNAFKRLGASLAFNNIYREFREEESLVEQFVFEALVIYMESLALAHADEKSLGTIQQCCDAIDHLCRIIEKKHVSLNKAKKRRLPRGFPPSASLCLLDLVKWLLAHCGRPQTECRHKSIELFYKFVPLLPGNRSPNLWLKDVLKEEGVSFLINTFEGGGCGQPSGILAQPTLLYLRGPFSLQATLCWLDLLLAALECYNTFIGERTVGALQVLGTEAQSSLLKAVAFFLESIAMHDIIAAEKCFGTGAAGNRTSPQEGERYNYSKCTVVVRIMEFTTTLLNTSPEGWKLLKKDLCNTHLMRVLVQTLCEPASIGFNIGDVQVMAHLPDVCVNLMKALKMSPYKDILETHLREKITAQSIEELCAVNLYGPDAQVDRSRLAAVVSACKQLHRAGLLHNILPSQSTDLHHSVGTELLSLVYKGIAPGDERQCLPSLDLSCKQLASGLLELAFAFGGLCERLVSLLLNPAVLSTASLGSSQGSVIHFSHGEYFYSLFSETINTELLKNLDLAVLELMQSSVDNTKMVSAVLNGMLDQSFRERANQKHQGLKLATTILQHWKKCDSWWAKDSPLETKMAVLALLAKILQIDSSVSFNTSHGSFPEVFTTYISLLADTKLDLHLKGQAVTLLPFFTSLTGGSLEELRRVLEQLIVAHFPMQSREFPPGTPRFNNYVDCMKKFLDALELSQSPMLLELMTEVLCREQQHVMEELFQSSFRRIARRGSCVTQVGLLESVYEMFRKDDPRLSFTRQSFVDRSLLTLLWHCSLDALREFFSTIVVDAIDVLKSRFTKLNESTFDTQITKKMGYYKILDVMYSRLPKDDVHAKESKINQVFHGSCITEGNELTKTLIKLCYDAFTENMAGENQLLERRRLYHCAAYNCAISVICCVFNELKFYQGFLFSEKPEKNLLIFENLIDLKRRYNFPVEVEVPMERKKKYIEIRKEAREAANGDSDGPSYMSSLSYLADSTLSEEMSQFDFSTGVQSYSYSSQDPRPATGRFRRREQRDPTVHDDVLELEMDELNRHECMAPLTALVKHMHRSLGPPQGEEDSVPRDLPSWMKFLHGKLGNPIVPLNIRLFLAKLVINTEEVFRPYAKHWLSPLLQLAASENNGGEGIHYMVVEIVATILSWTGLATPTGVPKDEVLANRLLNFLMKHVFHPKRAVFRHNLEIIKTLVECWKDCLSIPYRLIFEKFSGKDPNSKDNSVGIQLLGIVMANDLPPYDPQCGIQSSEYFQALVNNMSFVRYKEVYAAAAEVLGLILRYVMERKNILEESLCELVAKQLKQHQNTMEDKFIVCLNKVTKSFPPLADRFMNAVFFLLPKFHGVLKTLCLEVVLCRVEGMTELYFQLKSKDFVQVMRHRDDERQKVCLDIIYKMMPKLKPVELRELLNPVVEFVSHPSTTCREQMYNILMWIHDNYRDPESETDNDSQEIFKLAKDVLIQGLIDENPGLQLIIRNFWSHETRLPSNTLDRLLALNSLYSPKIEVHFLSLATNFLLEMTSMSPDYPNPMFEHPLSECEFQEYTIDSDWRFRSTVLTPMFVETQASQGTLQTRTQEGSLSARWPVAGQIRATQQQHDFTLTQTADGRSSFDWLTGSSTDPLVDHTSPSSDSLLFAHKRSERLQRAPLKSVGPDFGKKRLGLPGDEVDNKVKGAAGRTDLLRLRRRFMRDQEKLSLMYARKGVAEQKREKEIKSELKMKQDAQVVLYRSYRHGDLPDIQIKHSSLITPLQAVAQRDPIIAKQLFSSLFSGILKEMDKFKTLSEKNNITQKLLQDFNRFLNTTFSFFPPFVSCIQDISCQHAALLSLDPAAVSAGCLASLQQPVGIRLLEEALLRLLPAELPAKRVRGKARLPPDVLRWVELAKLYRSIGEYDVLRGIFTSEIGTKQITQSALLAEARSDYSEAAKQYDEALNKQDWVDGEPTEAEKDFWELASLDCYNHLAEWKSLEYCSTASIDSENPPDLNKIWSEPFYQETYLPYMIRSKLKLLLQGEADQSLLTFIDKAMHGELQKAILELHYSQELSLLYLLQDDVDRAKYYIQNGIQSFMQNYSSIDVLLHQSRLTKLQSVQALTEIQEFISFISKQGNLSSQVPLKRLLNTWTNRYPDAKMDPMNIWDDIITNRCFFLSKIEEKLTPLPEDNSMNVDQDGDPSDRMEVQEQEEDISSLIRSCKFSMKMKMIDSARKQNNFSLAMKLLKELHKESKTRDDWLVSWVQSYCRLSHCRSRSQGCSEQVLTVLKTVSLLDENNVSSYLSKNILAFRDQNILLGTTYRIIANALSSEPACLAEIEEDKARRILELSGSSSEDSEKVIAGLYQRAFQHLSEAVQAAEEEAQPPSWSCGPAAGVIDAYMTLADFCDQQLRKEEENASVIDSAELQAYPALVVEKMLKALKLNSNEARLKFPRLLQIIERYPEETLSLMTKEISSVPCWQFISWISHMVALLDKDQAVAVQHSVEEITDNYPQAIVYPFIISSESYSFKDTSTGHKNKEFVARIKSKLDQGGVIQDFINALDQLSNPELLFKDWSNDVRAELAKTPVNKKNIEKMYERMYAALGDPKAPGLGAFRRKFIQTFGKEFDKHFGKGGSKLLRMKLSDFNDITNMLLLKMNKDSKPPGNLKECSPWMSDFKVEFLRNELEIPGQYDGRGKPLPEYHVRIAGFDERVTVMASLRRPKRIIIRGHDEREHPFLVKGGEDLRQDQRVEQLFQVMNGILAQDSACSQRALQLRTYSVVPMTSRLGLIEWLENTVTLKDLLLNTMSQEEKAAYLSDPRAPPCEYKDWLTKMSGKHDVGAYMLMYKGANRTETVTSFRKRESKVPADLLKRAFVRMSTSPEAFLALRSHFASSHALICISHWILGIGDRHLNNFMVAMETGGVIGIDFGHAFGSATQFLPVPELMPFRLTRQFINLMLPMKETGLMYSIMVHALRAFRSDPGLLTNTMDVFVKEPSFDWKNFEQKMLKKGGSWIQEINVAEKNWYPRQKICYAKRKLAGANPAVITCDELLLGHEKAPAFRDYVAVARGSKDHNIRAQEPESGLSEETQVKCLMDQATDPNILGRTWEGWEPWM
Procedure: FIG. 1. Identification and purification of S473K. (A-C) Mono Q fractions were assayed for S473K activity with the FSY (solid) or FAY peptides (open) in the presence (triangles) or absence (circles) of DNA. […] (B) A 10-μl aliquot of each fraction was subjected to 8% SDS-PAGE and proteins visualized by Coomassie Blue staining. (C) Western blotting of fractions with anti-DNA-PKcs and anti-Ku80/Ku70 antibodies. (D) Recombinant ΔPH-PKBαT309P (PKB) was first incubated with S473K1 (5 μl), 10 μg/ml fetal calf thymus DNA, and 100 μM ATP in kinase buffer for different times. Aliquots of the reaction mixture were removed for assay of PKB activity as described in (11) or for Western blotting with pS473 and pT308 phospho-specific antibodies. […].
All steps were performed at 4° C. Four hundred plates (Ø […]) of HEK293 cells were harvested in ice-cold phosphate-buffered saline and homogenized in ice-cold buffer A (50 mM Tris-HCl pH 7.4, 300 mM sucrose, 1 mM dithiothreitol, 10 mM sodium fluoride, 0.1 mM sodium orthovanadate, 20 nM okadiac acid, 1 mM phenylmethanesulfonyl fluoride and 1 mM benzamidine) using a polytron homogenizer. The nuclear fraction was removed by centrifuging at 1000 g for 10 min and the resulting supernatant was further centrifuged at 100,000 g for 60 min. […]

[4] = target: T2, purified DNA-PK (Homo sapiens, UniProt P78527); assay: Purified DNA-PK phosphorylation of PKB (FSY peptide / GST-PKBα419-480); type: biochemical; settings: FSY peptide and GST-PKBα419-480; staurosporine 5 μM (FIGS. 2A and B)
T2 construct: purified DNA-PK (from HeLa cells and human placenta) was tested; purchased Promega; host or cells: HeLa cells and human placenta
Procedure: FIG. 2. DNA-PK phosphorylates and activates PKB in vitro. (A) Purified DNA-PK (Promega) (25 units) was assayed with 0.1 mg/ml of FSY, FAY and DNA-PK p53 substrate peptide (CTL) in the presence (+) or absence (−) of DNA. […]; aliquots of the reaction mixture were removed for assay of PKB activity as described in FIG. 1D or for Western blotting with pS473 and pT308 phospho-specific antibodies. (D) GST-PKBα419-480 and His-p53 (each 1 μg) were incubated with 25 units of purified DNA-PK and 100 μM [γ-32P]ATP in kinase buffer (11). The reactions were terminated and analyzed on 10% SDS-PAGE followed by autoradiography or 32P determination in excised gel slices.
An antibody specific for PKB phosphorylated on Thr-308 (pT308) was purchased from Cell Signaling Technologies. An antibody specific for PKB phosphorylated on Ser-473 (pS473) was produced and purified as previously described (33). Polyclonal anti-PKB antibody (antibody10) (34) and monoclonal anti-PKB (A4D6) (35) have been described previously. Anti-Ku80, and anti-Ku 70 antibodies were purchased from Transduction Labs. Anti-DNA-PKcs (monoclonal G4) was from Santa Cruz Inc. Double-stranded fetal calf thymus DNA was from Sigma, and purified human DNA-PK protein and p53 substrate peptide […] (36) from Promega. […]

Row | Structure (SMILES) | PKB activity and Ser-473 phosphorylation [1] | DNA-PK activity [2] | S473K1 activity [3] | phosphorylation of PKB catalyzed by purified DNA-PK [4]
1 | N.N.[Cl][Pt][Cl] [cisplatin] | inhibited | decrease | – | –
2 | CN[C@@H]1C[C@H]2O[C@@](C)([C@@H]1OC)n1c3ccccc3c3c4c(c5c6ccccc6n2c5c31)C(=O)NC4 [staurosporine] | – | – | not affected | resistant
